Reference: ChEMBL document CHEMBL1201862, “PubChem BioAssay data set” (2004)
Active and inactive are the calls of the source.

How the values were obtained:
[1] = inhibitors of firefly luciferase expression or activity, dose response, H4 neuroglioma cells, luminescence (AID 1990); type: functional, cell-based
[2] = target: 72 kDa type IV collagenase (Homo sapiens, UniProt P08253); assay: Dose Response validation of uHTS RPN11 inhibitor hits using a MMP-2 Fluorescence assay.; type: functional
[3] = target: 26S proteasome non-ATPase regulatory subunit 14 (Homo sapiens, UniProt O00487); assay: inhibition of proteasome subunit RPN11 – biochemical, fluorescence polarization, uHTS hits, confirmation (AID 602368); type: functional
26S proteasome non-ATPase regulatory subunit 14, sequence (O00487 whole entry): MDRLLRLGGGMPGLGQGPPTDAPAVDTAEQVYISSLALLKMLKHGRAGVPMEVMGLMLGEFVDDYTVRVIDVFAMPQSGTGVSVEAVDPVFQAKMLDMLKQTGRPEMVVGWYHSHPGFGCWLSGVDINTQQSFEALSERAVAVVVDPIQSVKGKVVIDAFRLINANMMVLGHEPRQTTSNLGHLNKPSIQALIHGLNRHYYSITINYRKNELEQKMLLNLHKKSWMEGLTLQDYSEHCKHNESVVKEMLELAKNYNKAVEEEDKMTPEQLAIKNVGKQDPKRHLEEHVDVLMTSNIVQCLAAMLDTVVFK

[4] = C. albicans growth with fluconazole, confirmation, fluorescence, retest (AID 2467); type: functional, cell-based
[5] = target: T1, Short transient receptor potential channel 4 (Mus musculus, UniProt Q9QUQ5); assay: mouse TRPC4 channel activators, dose response, cell-based, HEK293 TRPC4/mu-opioid, Fluo-4 calcium (AID 434937); type: functional
T1 sequence (Q9QUQ5 whole entry): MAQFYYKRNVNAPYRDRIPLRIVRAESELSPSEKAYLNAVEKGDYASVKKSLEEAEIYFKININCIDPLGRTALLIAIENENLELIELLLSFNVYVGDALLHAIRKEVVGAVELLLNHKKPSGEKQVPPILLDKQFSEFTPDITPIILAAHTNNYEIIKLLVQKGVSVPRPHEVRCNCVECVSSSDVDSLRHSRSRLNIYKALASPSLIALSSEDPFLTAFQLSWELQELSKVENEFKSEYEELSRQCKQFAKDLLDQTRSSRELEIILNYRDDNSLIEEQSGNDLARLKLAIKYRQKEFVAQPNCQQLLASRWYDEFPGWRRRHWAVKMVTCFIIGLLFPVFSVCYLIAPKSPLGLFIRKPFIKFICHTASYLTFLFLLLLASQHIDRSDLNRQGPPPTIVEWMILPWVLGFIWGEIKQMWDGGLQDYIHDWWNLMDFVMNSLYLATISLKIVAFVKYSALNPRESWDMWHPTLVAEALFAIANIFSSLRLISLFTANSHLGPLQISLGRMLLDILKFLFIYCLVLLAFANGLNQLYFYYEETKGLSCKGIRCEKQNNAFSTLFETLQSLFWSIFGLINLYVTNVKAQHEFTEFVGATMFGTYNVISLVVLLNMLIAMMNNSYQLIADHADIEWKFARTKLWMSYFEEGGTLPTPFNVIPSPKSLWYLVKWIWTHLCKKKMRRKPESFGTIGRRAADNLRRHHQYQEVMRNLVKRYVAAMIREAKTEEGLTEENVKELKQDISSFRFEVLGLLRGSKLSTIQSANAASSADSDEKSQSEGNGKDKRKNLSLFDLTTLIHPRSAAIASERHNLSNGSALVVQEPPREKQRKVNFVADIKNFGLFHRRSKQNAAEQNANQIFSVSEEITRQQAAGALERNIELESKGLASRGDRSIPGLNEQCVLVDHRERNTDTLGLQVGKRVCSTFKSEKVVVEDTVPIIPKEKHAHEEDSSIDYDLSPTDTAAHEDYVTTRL

[6] = target: T2, DNA repair protein RAD52 homolog (Homo sapiens, UniProt P43351); type: functional, biochemical
T2 sequence (P43351 whole entry): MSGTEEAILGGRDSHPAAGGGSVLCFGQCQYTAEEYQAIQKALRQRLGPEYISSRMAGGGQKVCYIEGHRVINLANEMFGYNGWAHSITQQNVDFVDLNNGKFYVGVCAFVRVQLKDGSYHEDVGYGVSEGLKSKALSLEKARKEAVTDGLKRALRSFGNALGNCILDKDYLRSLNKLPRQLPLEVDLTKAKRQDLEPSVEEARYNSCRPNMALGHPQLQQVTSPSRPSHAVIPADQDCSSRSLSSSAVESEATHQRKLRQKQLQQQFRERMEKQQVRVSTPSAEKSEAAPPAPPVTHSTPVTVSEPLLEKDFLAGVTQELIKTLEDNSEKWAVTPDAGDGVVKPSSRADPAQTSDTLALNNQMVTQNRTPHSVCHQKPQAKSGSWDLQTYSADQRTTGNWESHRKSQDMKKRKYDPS

[7] = inhibitors of SNCA 5'UTR-driven reporter translation, confirmation, H4 neuroglioma cells, luminescence (AID 1988); type: functional, cell-based
Caspase-6 = target: T3, Caspase-6 (Homo sapiens, UniProt P55212); assay: human caspase-6 inhibitors, dose response, biochemical, VEID-R110 fluorescence, cherry-pick (AID 720632)
T3 sequence (P55212 whole entry): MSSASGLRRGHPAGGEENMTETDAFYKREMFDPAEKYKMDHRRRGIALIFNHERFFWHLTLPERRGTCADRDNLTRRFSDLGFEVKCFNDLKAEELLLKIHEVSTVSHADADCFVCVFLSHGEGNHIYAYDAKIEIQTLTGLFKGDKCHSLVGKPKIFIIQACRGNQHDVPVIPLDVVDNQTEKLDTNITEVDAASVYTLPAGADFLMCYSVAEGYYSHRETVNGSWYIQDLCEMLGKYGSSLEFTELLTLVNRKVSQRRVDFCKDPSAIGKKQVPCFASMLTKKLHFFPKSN

[8] = tested on: Streptococcus sp. 'group A'; assay: growth inhibition of control SK(-) GAS strain, dose response, counter-screen for streptokinase expression inhibitor project, luminescence, kanamycin, BacTiterGlo, confirmation (AID 1900); type: functional, organism-based

72 kDa type IV collagenase, sequence (P08253 whole entry): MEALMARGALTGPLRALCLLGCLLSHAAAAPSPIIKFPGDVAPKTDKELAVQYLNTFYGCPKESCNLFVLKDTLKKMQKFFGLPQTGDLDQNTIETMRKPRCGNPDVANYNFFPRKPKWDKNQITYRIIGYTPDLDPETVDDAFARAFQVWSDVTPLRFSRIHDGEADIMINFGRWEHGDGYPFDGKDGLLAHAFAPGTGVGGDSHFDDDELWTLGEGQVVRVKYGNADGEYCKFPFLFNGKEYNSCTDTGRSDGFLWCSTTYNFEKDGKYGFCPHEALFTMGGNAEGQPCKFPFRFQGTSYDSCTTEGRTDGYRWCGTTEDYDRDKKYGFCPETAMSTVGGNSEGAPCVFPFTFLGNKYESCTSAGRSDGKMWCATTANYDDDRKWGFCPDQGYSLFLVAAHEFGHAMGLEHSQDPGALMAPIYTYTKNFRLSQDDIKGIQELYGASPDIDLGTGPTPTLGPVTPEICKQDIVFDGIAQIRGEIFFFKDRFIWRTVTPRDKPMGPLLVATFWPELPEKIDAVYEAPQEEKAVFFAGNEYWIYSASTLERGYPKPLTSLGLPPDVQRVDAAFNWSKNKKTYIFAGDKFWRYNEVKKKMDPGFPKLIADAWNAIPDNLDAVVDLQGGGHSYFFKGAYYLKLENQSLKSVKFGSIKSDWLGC

N=C(N)N/N=C/c1ccc(N(c2ccccc2)c2ccccc2)cc1
active: EC50 [1] 8.89 µM | IC50 [2] 66.3 µM | IC50 [3] 18 µM | EC50 [4] 5.12 µM | EC50 [5] 9.44 µM | AC50 [6] 10.8 µM | EC50 [7] 10.4 µM | AC50 (Caspase-6) 10.1 µM | EC50 [8] 2.39 µM
